ChEMBL document CHEMBL2029327, “Synthetic menthyl α/β-(1→6)-diglucopyranosides-induced cell death in human leukemia cells is dependent on caspases” (Bioorg Med Chem Lett, 2012)
Activity calls are given as the source filed them. The rule behind the calls is not given here.

Tests used:
[1] = system: U-937; experiment: Cytotoxicity against human U937 cells assessed as morphological changes at 10 uM after 24 hrs by inverted phase-contrast microscopic analysis; type: functional, cell-based
[2] = system: HL-60; experiment: Induction of apoptosis in human HL60 cells assessed as cleavage of procaspase 6 at 10 to 30 uM after 24 hrs by Western blot analysis; type: functional, cell-based
[3] = system: U-937; experiment: Cytotoxicity against human U937 cells after 72 hrs by MTT assay; type: functional, cell-based; details: for IC50: U-937, 72 h
[4] = system: MCF7; experiment: Cytotoxicity against human MCF7 cells assessed as morphological changes at 10 uM after 24 hrs by inverted phase-contrast microscopic analysis; type: functional, cell-based
[5] = system: HL-60; experiment: Induction of apoptosis in human HL60 cells assessed as increase in hypodiploid cells at 30 uM after 24 hrs by propidium iodide staining-based flow cytometric analysis in presence of 100 uM caspase inhibition Z-VAD-fmk; type: functional, cell-based
[6] = system: U-937; experiment: Cytotoxicity against human U937 cells assessed as reduction in cell number at 10 uM after 24 hrs by inverted phase-contrast microscopic analysis; type: functional, cell-based
[7] = system: HL-60; experiment: Induction of apoptosis in human HL60 cells assessed as change in Bcl-2 protein level at 10 to 30 uM after 24 hrs by Western blot analysis; type: functional, cell-based
[8] = system: MOLT-3; experiment: Cytotoxicity against human MOLT3 cells after 72 hrs by MTT assay; type: functional, cell-based; details: for IC50: MOLT-3, 72 h
[9] = system: U-937; experiment: Induction of apoptosis in human U937 cells assessed as cleavage of procaspase 9 at 10 to 30 uM after 24 hrs by Western blot analysis; type: functional, cell-based
[10] = system: HL-60; experiment: Induction of apoptosis in human HL60 cells assessed as cleavage of procaspase 9 at 10 to 30 uM after 24 hrs by Western blot analysis; type: functional, cell-based
[11] = system: MOLT-3; experiment: Cytotoxicity against human MOLT3 cells assessed as reduction in cell number at 10 uM after 24 hrs by inverted phase-contrast microscopic analysis; type: functional, cell-based
[12] = system: HL-60; experiment: Induction of apoptosis in human HL60 cells assessed as decrease in ROS level up to 12 hrs by H2-DCF-DA dye-based flow cytometric analysis; type: functional, cell-based
[13] = system: U-937; experiment: Induction of apoptosis in human U937 cells assessed as change in Bcl-2 protein level at 10 to 30 uM after 24 hrs by Western blot analysis; type: functional, cell-based
[14] = system: U-937; experiment: Induction of apoptosis in human U937 cells assessed as cleavage of procaspase 3 at 10 to 30 uM after 24 hrs by Western blot analysis; type: functional, cell-based
[15] = system: HL-60; experiment: Induction of apoptosis in human HL60 cells assessed as increase in apoptotic cells at 30 uM after 24 hrs by propidium iodide staining-based flow cytometric analysis relative to control; type: functional
[16] = system: HL-60; experiment: Induction of apoptosis in human HL60 cells assessed as decrease in Bid protein level at 10 to 30 uM after 24 hrs by Western blot analysis; type: functional, cell-based
[17] = system: HL-60; experiment: Cytotoxicity against human HL60 cells after 72 hrs by MTT assay; type: functional, cell-based; details: for IC50: HL-60, 72 h
[18] = system: HL-60; experiment: Cytotoxicity against human HL60 cells assessed as reduction in cell number at 10 uM after 24 hrs by inverted phase-contrast microscopic analysis; type: functional, cell-based
[19] = system: MOLT-3; experiment: Induction of apoptosis in human MOLT3 cells assessed as […] hydrolysis of chromatin at 10 uM after 24 hrs by agarose gel electrophoretic analysis; type: functional, cell-based
[20] = system: MCF7; experiment: Cytotoxicity against human MCF7 cells after 72 hrs by MTT assay; type: functional, cell-based; details: for IC50: MCF7, 72 h
[21] = system: HL-60; experiment: Induction of apoptosis in human HL60 cells assessed as release of cytochrome c release from mitochondria at 10 to 30 uM after 24 hrs by Western blot analysis; type: functional, cell-based
[22] = system: HL-60; experiment: Induction of apoptosis in human HL60 cells assessed as increase in Bax protein level at 10 to 30 uM after 24 hrs by Western blot analysis; type: functional, cell-based
[23] = system: HL-60; experiment: Induction of apoptosis in human HL60 cells assessed as cleavage of procaspase 3 at 10 to 30 uM after 24 hrs by Western blot analysis; type: functional, cell-based
[24] = system: U-937; experiment: Induction of apoptosis in human U937 cells assessed as cleavage of procaspase 6 at 10 to 30 uM after 24 hrs by Western blot analysis; type: functional, cell-based
[25] = system: HL-60; experiment: Cytotoxicity against human HL60 cells assessed as morphological changes at 10 uM after 24 hrs by inverted phase-contrast microscopic analysis; type: functional, cell-based
[26] = system: U-937; experiment: Induction of apoptosis in human U937 cells assessed as increase in caspase 3/7-mediated cleavage of DEVD-pNA at 30 uM after 24 hrs relative to control; type: functional
[27] = system: HL-60; experiment: Induction of apoptosis in human HL60 cells assessed as increase in caspase 3/7-mediated cleavage of DEVD-pNA at 30 uM after 24 hrs relative to control; type: functional
[28] = system: U-937; experiment: Induction of apoptosis in human U937 cells assessed as increase in Bax protein level at 10 to 30 uM after 24 hrs by Western blot analysis; type: functional, cell-based
[29] = system: HL-60; experiment: Induction of apoptosis in human HL60 cells assessed as cleavage of procaspase 7 at 10 to 30 uM after 24 hrs by Western blot analysis; type: functional, cell-based
[30] = system: U-937; experiment: Induction of apoptosis in human U937 cells assessed as release of cytochrome c release from mitochondria at 10 to 30 uM after 24 hrs by Western blot analysis; type: functional, cell-based
[31] = system: HL-60; experiment: Induction of apoptosis in human HL60 cells assessed as increase in caspase 8-mediated cleavage of IETD-pNA at 30 uM after 24 hrs; type: functional, cell-based
[32] = system: HL-60; experiment: Induction of apoptosis in human HL60 cells assessed as increase in caspase 9-mediated cleavage of LEHD-pNA at 30 uM after 24 hrs; type: functional, cell-based
[33] = system: U-937; experiment: Induction of apoptosis in human U937 cells assessed as increase in caspase 8-mediated cleavage of IETD-pNA at 30 uM after 24 hrs; type: functional, cell-based
[34] = system: MOLT-3; experiment: Induction of apoptosis in human MOLT3 cells assessed as increase in caspase 3/7-mediated cleavage of DEVD-pNA at 30 uM after 24 hrs relative to control; type: functional
[35] = system: U-937; experiment: Induction of apoptosis in human U937 cells assessed as […] hydrolysis of chromatin at 10 uM after 24 hrs by agarose gel electrophoretic analysis; type: functional, cell-based
[36] = system: MOLT-3; experiment: Induction of apoptosis in human MOLT3 cells assessed as increase in chromatin condensation at 10 uM after 24 hrs by Hoechst staining-based flow cytometric analysis; type: functional, cell-based
[37] = system: HL-60; experiment: Induction of apoptosis in human HL60 cells assessed as […] hydrolysis of chromatin at 10 uM after 24 hrs by agarose gel electrophoretic analysis; type: functional, cell-based
[38] = system: U-937; experiment: Induction of apoptosis in human U937 cells assessed as increase in chromatin condensation at 10 uM after 24 hrs by Hoechst staining-based flow cytometric analysis; type: functional, cell-based
[39] = system: MOLT-3; experiment: Induction of apoptosis in human MOLT3 cells assessed as increase in caspase 8-mediated cleavage of IETD-pNA at 30 uM after 24 hrs; type: functional, cell-based
[40] = system: MOLT-3; experiment: Cytotoxicity against human MOLT3 cells assessed as morphological changes at 10 uM after 24 hrs by inverted phase-contrast microscopic analysis; type: functional, cell-based
[41] = system: MOLT-3; experiment: Induction of apoptosis in human MOLT3 cells assessed as increase in caspase 9-mediated cleavage of LEHD-pNA at 30 uM after 24 hrs; type: functional, cell-based
[42] = system: U-937; experiment: Induction of apoptosis in human U937 cells assessed as increase in caspase 9-mediated cleavage of LEHD-pNA at 30 uM after 24 hrs; type: functional, cell-based
[43] = system: U-937; experiment: Induction of apoptosis in human U937 cells assessed as increase in apoptotic cells at 30 uM after 24 hrs by propidium iodide staining-based flow cytometric analysis relative to control; type: functional
[44] = system: U-937; experiment: Induction of apoptosis in human U937 cells assessed as cleavage of procaspase 7 at 10 to 30 uM after 24 hrs by Western blot analysis; type: functional, cell-based
[45] = system: HL-60; experiment: Cell cycle in human HL60 cells at 30 uM after 24 hrs by flow cytometric analysis in presence of 100 uM caspase inhibition Z-VAD-fmk; type: functional, cell-based
[46] = system: HL-60; experiment: Induction of apoptosis in human HL60 cells assessed as increase in chromatin condensation at 10 uM after 24 hrs by Hoechst staining-based flow cytometric analysis; type: functional, cell-based
[47] = system: U-937; experiment: Induction of apoptosis in human U937 cells assessed as decrease in Bid protein level at 10 to 30 uM after 24 hrs by Western blot analysis; type: functional, cell-based

CC(C)[C@H]1CC[C@H](C)C[C@@H]1O[C@@H]1O[C@H](CO[C@@H]2O[C@H](COC(=O)c3ccc(Br)cc3)[C@@H](OC(=O)c3ccc(Br)cc3)[C@H](O)[C@H]2O)[C@@H](O)[C@H](O)[C@H]1O
Activity [1]: Active | Activity [2]: Active | Activity [3]: Dose-dependent effect | IC50 [3]: 14.1 µM | Activity [4]: Active | Activity [5]: inactive | Activity [6]: Active | Activity [7]: inactive | Activity [8]: Dose-dependent effect | IC50 [8]: 12.6 µM | Activity [9]: Active | Activity [10]: Active | Activity [11]: Active | Activity [12]: inactive | Activity [13]: inactive | Activity [14]: Active | Activity [15]: 56.9% | Activity [16]: Active | Activity [17]: Dose-dependent effect | IC50 [17]: 14.9 µM | Activity [18]: Active | Activity [19]: Active | Activity [20]: Dose-dependent effect | IC50 [20]: 16 µM | Activity [21]: Active | Activity [22]: Active | Activity [23]: Active | Activity [24]: Active | Activity [25]: Active | fold change (FC) [26]: >7 | fold change (FC) [27]: >7 | Activity [28]: Active | Activity [29]: Active | Activity [30]: Active | Activity [31]: Active | Activity [32]: Active | Activity [33]: Active | fold change (FC) [34]: >7 | Activity [35]: Active | Activity [36]: Active | Activity [37]: Active | Activity [38]: Active | Activity [39]: Active | Activity [40]: Active | Activity [41]: Active | Activity [42]: Active | Activity [43]: 23.2% | Activity [44]: Active | Activity [45]: inactive | Activity [46]: Active | Activity [47]: Active

CC(C)[C@@H]1CC[C@@H](C)C[C@H]1OC1O[C@H](CO[C@@H]2O[C@H](COC(=O)c3ccc(Br)cc3)[C@@H](OC(=O)c3ccc(Br)cc3)[C@H](O)[C@H]2O)[C@@H](O)[C@H](O)[C@H]1O (single isomer, unassigned)
Activity [1]: Active | Activity [3]: Dose-dependent effect | IC50 [3]: 5.8 µM | Activity [4]: Active | Activity [6]: Active | Activity [8]: Dose-dependent effect | IC50 [8]: 10.6 µM | Activity [11]: Active | Activity [17]: Dose-dependent effect | IC50 [17]: 7 µM | Activity [18]: Active | Activity [19]: Active | Activity [20]: Dose-dependent effect | IC50 [20]: 12.1 µM | Activity [25]: Active | Activity [35]: Active | Activity [36]: Active | Activity [37]: Active | Activity [38]: Active | Activity [40]: Active | Activity [46]: Active
